Assay results taken from patent US20250249025A1, “DRUG DELIVERY CARRIER UTILIZING PROPERTY OF D-ALLOSE BEING UPTAKEN BY CANCER CELL, DRUG DELIVERY METHOD, AND COMPOSITION FOR TREATING RENAL CELL CARCINOMA” (NATIONAL UNIVERSITY CORPORATION KAGAWA UNIVERSITY, priority 2019, published 2025).

Key:
[1] = test system: human bladder carcinoma cell line J82; experiment: Rare sugar uptake experiment, sugar content in disrupted cell suspension of J82; type: cell-based
Protocol: An uptake amount of a rare sugar, which had been added to a medium, into carcinoma cells was analyzed using the cell lines of three types of cancers. As the rare sugar, four kinds, that is, D-allose, D-allulose (D-psicose), L-allulose (L-psicose), and allitol were used, while D-glucose and fructose were used as a monosaccharide which was not a rare sugar.
Cells of each of the cell lines were cultured in RPMI-1640 media and during culturing, six sugars were each added to the resulting media and cultured. After culturing, an amount of each sugar taken up into the cells was analyzed. The medium to which no sugar was added during culturing was used as a control.
Used were human bladder carcinoma cell lines (RT112, 253), and J82), human prostatic carcinoma cell lines (LNCa, Du145, and PC-3), and human renal cell carcinoma cell lines (ACHN, Caki-I, and Caki-II).
After cells were cultured in RPMI-1640 (2000 mg D-glucose/L) media, the above monosaccharides and rare sugars were added to the resulting media, respectively. Described specifically, they were following seven combinations: RPMI-1640 alone (control), RPMI-1640+D-glucose, RPMI-1640+L-allulose, RPMI-1640+D-allulose, RPMI-1640+D-fructose, RPMI-1640+D-allose, and RPMI-1640+D-allitol. The final concentration of the sugar in the medium was adjusted to 10 mM and no sugar was added in the control.
Five-ml portions of a 3.0×10^4 cells/ml cell suspension prepared using RPMI-1640 were seeded in dishes having a diameter of 6 cm (1.5×10^5 cells/dish) and cultured for 24 hours in the RPMI-1640 medium containing 2000 mg/l of D-glucose as a nutrient source. Twenty-four hours later, the media were changed to the culture solutions containing the monosaccharides and rare sugars described above in 2), respectively, followed by culturing for 48 hours.
After culturing for 48 hours, the attached human carcinoma cells were mechanically separated and collected in a Spitz tube together with the culture solution and floating cells. After the supernatant formed by centrifugation (4° C., 1200 rpm, and 5 minutes) was removed to obtain cell pellets alone, 5 ml of a phosphate buffer physiological saline (PBS) was added for the purpose of washing to obtain a cell suspension of the cell pellets. A gain, the resulting cell suspension was centrifuged at 4° C. and 1200 rpm for 5 minutes and the supernatant was removed. To the cell pellets after washing was added 1 ml of pure water to suspend them therein. Ultrasonic disruption (intensity: 40%, 30 seconds) was then performed and the monosaccharide in the disrupted cell suspension was labeled with ABEE, followed by analysis by HPLC. From the area thus obtained, the sugar content in the cells was determined using a calibration curve. With respect to the ketose, two peaks were found after labeling with ABEE so that the sugar content in the cells was determined from the calibration curves of both peaks.

Caki-I tumor tissue = experiment: Tumor tissue histology (necrosis area, nuclear fission), Caki-I xenograft mouse model; type: in vivo, mice; settings: day 35
Protocol: The experiment of the present example used two human renal cell carcinoma cell lines (Caki-I and ACHN). Each cell was cultured under the wet environment of 37° C. and 5% CO2 by using a RPMI-1640 culture solution (2000 mg D-glucose/L) containing a 10% fetal calf serum, a HEPES buffer, and penicillin-streptomycin.
With respect to a renal cell carcinoma xenograft mouse model, a 1.0×10^5 cells/ml of a cell suspension was obtained by adjusting the cultured cells with a MEM culture solution and then 0.1 ml of the resulting suspension was injected into the femoral subcutaneous tissue of Female athymic nude mice (BALB/c-nu/nu, 6-week-old). After checking that the tumor volume was 200 mm^3 or more one week after the injection, the mice were provided for the experiment thereafter.
The day when the tumor size of the renal cell carcinoma xenograft mouse models became 200 mm^3 or more was called day 0 and the intraperitoneal injection of a D-allose-containing solution was started from day 1. The solution injected is 0.4 mL of physiological saline or a solution obtained by dissolving 100 mg/kg or 400 mg/kg of D-allose in 0.4 mL physiological saline. The resulting solution was intraperitoneally injected into three groups of mice (Control, 100 mg/kg of D-allose, and 400 mg/kg of D-allose) once a day for 5 weeks in total. The body weight of the mice and the long and short diameters of the tumor were measured over time twice a week. It is to be noted that the tumor volume was obtained as a product of long diameter×short diameter×short diameter of the tumor×0.5. On day 35 after the intraperitoneal injection was started, the tumor as well as the liver and kidney were excised from the mice and provided for the experiment performed thereafter.
The tissue of the excised tumor, kidney, and liver was fixed with a 4% paraformaldehyde phosphate buffer, embedded with paraffin, and sliced into a 4-μm thick section. The resulting sliced section was stained with hematoxylin and eosin and evaluated by a medical specialist in pathology. The influence of D-allose on the tumor tissue was evaluated by a necrosis area (%) and an image of the number of nuclear fissions (Cells/HPF). It is to be noted that the necrosis area was measured using an image recording software Nikon NIS—Elements D and figures after the decimal point were omitted. On the other hand, the number of nuclear fissions was obtained as an average of those of three fields of view and figures after the decimal point were also omitted. The anti-tumor effect of D-allose, more specifically, necrosis area and the number of nuclear fissions in the renal cell carcinoma xenograft mouse model are shown in Table 10.

[2] = 100 mg/kg intraperitoneal once a day
[3] = 400 mg/kg intraperitoneal once a day

O=C[C@H](O)[C@H](O)[C@H](O)[C@H](O)CO [D-allose]
D-glucose content in cell ([1]; J82, named sugar added to RPMI-1640 at 10 mM, 48 hours, HPLC after ABEE labeling): 11.2 µg
Content in cell of the added sugar ([1]; human, 48 h, 10 mM): 0.0 µg
Necrosis area (Caki-I tumor tissue; [2]): 22%
Nuclear fission (Caki-I tumor tissue; [2]): 0.9 Cells/HPF
Necrosis area (Caki-I tumor tissue; [3]): 33%
Nuclear fission (Caki-I tumor tissue; [3]): 1 Cells/HPF
